Biological target: T1, USP28 (His-tagged USP28-FL-mammalian) (Homo sapiens, UniProt Q96RU2)
T1 construct: Expression of USP28 (1-1077)-TEV-6*His (pTT5 vector); made in house; host or cells: Expi293f cells (pTT5 vector)
T1 sequence (Q96RU2 1-1077): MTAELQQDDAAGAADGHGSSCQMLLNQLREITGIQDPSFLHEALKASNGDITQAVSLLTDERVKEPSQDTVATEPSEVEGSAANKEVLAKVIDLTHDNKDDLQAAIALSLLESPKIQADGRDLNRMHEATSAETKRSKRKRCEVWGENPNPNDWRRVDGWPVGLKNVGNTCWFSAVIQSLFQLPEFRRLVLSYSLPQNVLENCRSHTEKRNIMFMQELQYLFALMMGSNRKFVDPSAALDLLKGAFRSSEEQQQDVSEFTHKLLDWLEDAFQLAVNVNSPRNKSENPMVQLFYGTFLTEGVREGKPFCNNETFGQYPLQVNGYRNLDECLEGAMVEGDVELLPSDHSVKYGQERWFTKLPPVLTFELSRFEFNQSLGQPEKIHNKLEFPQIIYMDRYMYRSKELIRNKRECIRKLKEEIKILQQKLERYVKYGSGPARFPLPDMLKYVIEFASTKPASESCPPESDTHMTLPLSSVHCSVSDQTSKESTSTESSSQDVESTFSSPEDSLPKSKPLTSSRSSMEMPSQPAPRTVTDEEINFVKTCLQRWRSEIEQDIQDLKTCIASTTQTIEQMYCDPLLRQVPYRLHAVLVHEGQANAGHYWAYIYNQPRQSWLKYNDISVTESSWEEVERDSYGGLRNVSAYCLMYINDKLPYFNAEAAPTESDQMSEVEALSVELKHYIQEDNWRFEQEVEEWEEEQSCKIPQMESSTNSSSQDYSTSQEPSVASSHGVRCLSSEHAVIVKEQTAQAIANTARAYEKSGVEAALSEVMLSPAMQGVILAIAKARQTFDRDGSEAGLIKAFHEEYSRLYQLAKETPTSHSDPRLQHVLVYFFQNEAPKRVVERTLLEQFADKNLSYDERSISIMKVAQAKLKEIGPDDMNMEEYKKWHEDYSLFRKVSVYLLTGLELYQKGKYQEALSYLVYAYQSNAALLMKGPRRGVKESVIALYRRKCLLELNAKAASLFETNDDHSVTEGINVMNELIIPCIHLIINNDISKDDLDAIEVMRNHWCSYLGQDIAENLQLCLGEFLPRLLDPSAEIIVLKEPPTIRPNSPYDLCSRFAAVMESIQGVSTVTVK
Test: Ubiquitin-Rhodamine 110 Assay for USP28 Activity, Example A-1(a)
Type: biochemical
Conditions: Ubiquitin-Rhodamine 110 assay, Example A-1(a); read-out: USP28 A-1(a) IC50 range
Outline: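 Full-length His-tagged USP28 (1-1077, Expi293F-expressed; […]) was preincubated 30 min with compound (25 μM–1.3 nM, 10-point 3-fold) in 20 mM Tris-HCl pH 8.0, 3 mM BME, 0.03% BGG, 0.01% Triton X-100. Ub-Rh110 (25 nM) was then added for 45 min at room temperature, stopped with citric acid, and read by fluorescence (485/535 nm).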

| SMILES | IC50 [nM] |
| --- | --- |
| O=C(N[C@H]1COc2c(F)c(N3CC4CCC(C3)N4)cc(F)c2C1)c1cnc2c(c1)[C@H]1C[C@H]1CN2 [Example 90, (1aR,7bS)-N-((3R)-7-(3,8-diazabicyclo[3.2.1]octan-3-yl)-5,8-difluorochroman-3-yl)-1a,2,3,7b-tetrahydro-1H-cyclopropa[c][1,8]naphthyridine-6-carboxamide] | 200 to 2000 |
| O=C(N[C@H]1COc2cc(N3CCNCC3)ccc2C1)c1cnc2c(ccn2Cc2ccccc2)c1 [Example 59, (R)-1-benzyl-N-(7-(piperazin-1-yl)chroman-3-yl)-1H-pyrrolo[2,3-b]pyridine-5-carboxamide] | 1 to 50 |
| CCn1ccc2cc(C(=O)N[C@H]3COc4c(F)c([C@H]5CCNC[C@H]5O)cc(F)c4C3)nnc21 [Example 85, N-((R)-5,8-difluoro-7-((3S,4R)-3-hydroxypiperidin-4-yl)chroman-3-yl)-7-ethyl-7H-pyrrolo[2,3-c]pyridazine-3-carboxamide] | 200 to 2000 |
| CCn1ccc2cc(C(=O)N[C@H]3COc4c(F)c([C@@H]5CCNC[C@@H]5O)cc(F)c4C3)nnc21 [Example 84, N-((R)-5,8-difluoro-7-((3R,4S)-3-hydroxypiperidin-4-yl)chroman-3-yl)-7-ethyl-7H-pyrrolo[2,3-c]pyridazine-3-carboxamide] | 200 to 2000 |
| Cc1cnc2c(N)c(C(=O)N[C@H]3COc4cc(N5CCNCC5)ncc4C3)sc2n1 [Example 71, (R)-7-amino-3-methyl-N-(7-(piperazin-1-yl)-3,4-dihydro-2H-pyrano[3,2-c]pyridin-3-yl)thieno[2,3-b]pyrazine-6-carboxamide] | 50 to 200 |
| Nc1c(C(=O)N[C@H]2COc3cc(N4CCNCC4)ccc3C2)sc2nc(C3CC3)sc12 [Example 45] | 50 to 200 |
| Cc1ccc2c(N)c(C(=O)N[C@@H]3Cc4ccc(N5CCNCC5)nc4C4(CC4)C3)sc2n1 (single isomer, unassigned) [Example 31-3, 3-amino-6-methyl-N-[(6′S)-2-(piperazin-1-yl)-6′,7′-dihydro-5′H-spiro[cyclopropane-1,8′-quinoline]-6′-yl]thieno[2,3-b]pyridine-2-carboxamide] | 50 to 200 |
| O=C(N[C@H]1COc2cc(N3CCNCC3)ccc2C1)c1cnc2c(ccn2C(F)F)c1 [Example 38, (R)-1-(difluoromethyl)-N-(7-(piperazin-1-yl)chroman-3-yl)-1H-pyrrolo[2,3-b]pyridine-5-carboxamide] | 200 to 2000 |
| Cc1ccc2c(N)c(C(=O)N[C@@H]3CCc4nc(N5CCNCC5)c(F)cc4C3)sc2n1 (single isomer, unassigned) [Example 30-2] | 200 to 2000 |
| Cc1cnc2c(N)c(C(=O)N[C@H]3COc4cc(N5CCNCC5)c(C#N)c(F)c4C3)sc2n1 [Example 67, (R)-7-amino-N-(6-cyano-5-fluoro-7-(piperazin-1-yl)chroman-3-yl)-3-methylthieno[2,3-b]pyrazine-6-carboxamide] | 1 to 50 |
| COC[C@H]1CN(c2ccc3c(n2)CC[C@H](NC(=O)c2sc4nc(C)ccc4c2N)C3)C[C@H]1N (single isomer, unassigned) [Example 24-2] | 50 to 200 |
| Cc1ccc2c(N)c(C(=O)N[C@@H]3CCc4nc(N5CCNCC5)ccc4C3)sc2n1 (single isomer, unassigned) [Example 23-8] | 50 to 200 |

From patent US11524966B1 (Valo Early Discovery, Inc., priority 2017, dated 2022)
